# Measured values published in patent publication US20060069132A1, “Azolecarboxamide herbicides” (priority 2004, published 2006).
# Tests used:
# Assay in all cases: Test C pre-/postemergence herbicide test
# Surinam grass = format: in vivo, Urochloa decumbens
# How it was run: (§1)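 Visual ratings on a 0–100 scale (100 = complete control) made versus untreated controls after 12 to 14 greenhouse days. Test chemicals, formulated in surfactant-containing non-phytotoxic solvent, applied preemergence to planted seeds or postemergence to 1- to 4-leaf plants (2 to 18 cm).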
# corn = format: in vivo, Zea mays
# How it was run: as §1
# giant foxtail = format: in vivo, Setaria faberi
# How it was run: as §1
# johnsongrass = format: in vivo, Sorghum halepense
# How it was run: as §1
# lambsquarters = format: in vivo, Chenopodium album
# How it was run: as §1
# morningglory = format: in vivo, Ipomoea coccinea; set-up: key to Plant response rating, Morningglory: 0 = no effect, 100 = complete control
# How it was run: as §1
# eastern black nightshade = format: in vivo, Solanum ptycanthum; settings: preemergence
# How it was run: as §1
# yellow nutsedge = format: in vivo, Cyperus esculentus
# How it was run: as §1
# common ragweed = format: in vivo, Ambrosia elatior; set-up: key to Plant response rating, Ragweed: 0 = no effect, 100 = complete control
# How it was run: as §1
# soybean = format: in vivo, Glycine max
# How it was run: as §1
# [1] = 62 g ai/ha, preemergence, scale 0 to 100
# [2] = 250 g ai/ha, scale 0-100, preemergence
# [3] = 500 g ai/ha, scale 0 to 100 (0 no effect, 100 complete control), visual, 12 to 14 days, preemergence
# [4] = Postemergence, 500 g ai/ha, scale 0 to 100
# [5] = Postemergence, 250 g ai/ha, scale 0 to 100, 0 no effect, 100 complete control
# [6] = postemergence, 125 g ai/ha, scale 0 to 100
# [7] = postemergence, 62 g ai/ha, scale 0 to 100
# [8] = 125 g ai/ha, scale 0 (no effect) to 100 (complete control), visual, 12 to 14 days, preemergence
# [9] = 500 g ai/ha, scale 0 to 100 (0 no effect, 100 complete control), visual, 12 to 14 days
smiles,measurement,setting,value
C=CCNC(=O)c1cccc(NC(=O)c2cc(C(C)(C)C)nn2C)n1 [Compound 318],"Plant response rating, Surinam Grass",Surinam grass; [1],10
same,"Plant response rating, Surinam Grass",Surinam grass; [2],50
same,"Plant response rating, Surinam Grass",Surinam grass; [3],60
same,Surinam Grass plant response rating,Surinam grass; [4],10
same,"Plant response rating, Surinam Grass",Surinam grass; [5],0
same,"Plant response rating, Surinam Grass",Surinam grass; [6],0
same,"Plant response rating, Surinam Grass",Surinam grass; [7],0
same,"Plant response rating, Corn",corn; [1],0
same,"Plant response rating, Corn",corn; [8],0
same,"Plant response rating, Corn",corn; [2],10
same,"Plant response rating, Corn",corn; [3],40
same,Corn plant response rating,corn; [4],25
same,"Plant response rating, Corn",corn; [5],10
same,"Plant response rating, Corn",corn; [6],10
same,"Plant response rating, Corn",corn; [7],0
same,"Plant response rating, Foxtail, Giant",giant foxtail; [1],0
same,"Plant response rating, Foxtail, Giant",giant foxtail; [8],10
same,"Plant response rating, Foxtail, Giant",giant foxtail; [2],50
same,"Plant response rating, Foxtail, Giant",giant foxtail; [3],80
same,"Foxtail, Giant plant response rating",giant foxtail; [4],10
same,"Plant response rating, Foxtail, Giant",giant foxtail; [5],5
same,"Plant response rating, Foxtail, Giant",giant foxtail; [6],0
same,"Plant response rating, Foxtail, Giant",giant foxtail; [7],0
same,"Plant response rating, Johnsongrass",johnsongrass; [1],0
same,"Plant response rating, Johnsongrass",johnsongrass; [8],0
same,"Plant response rating, Johnsongrass",johnsongrass; [2],60
same,"Plant response rating, Johnsongrass",johnsongrass; [3],95
same,Johnsongrass plant response rating,johnsongrass; [4],0
same,"Plant response rating, Johnsongrass",johnsongrass; [5],0
same,"Plant response rating, Johnsongrass",johnsongrass; [6],0
same,"Plant response rating, Johnsongrass",johnsongrass; [7],0
same,"Plant response rating, Lambsquarters",lambsquarters; [1],80
same,"Plant response rating, Lambsquarters",lambsquarters; [8],95
same,"Plant response rating, Lambsquarters",lambsquarters; [2],100
same,"Plant response rating, Lambsquarters",lambsquarters; [3],100
same,Lambsquarters plant response rating,lambsquarters; [4],100
same,"Plant response rating, Lambsquarters",lambsquarters; [5],100
same,"Plant response rating, Lambsquarters",lambsquarters; [6],70
same,"Plant response rating, Lambsquarters",lambsquarters; [7],60
same,"Plant response rating, Morningglory",morningglory; [1],0
same,"Plant response rating, Morningglory",morningglory; [8],0
same,"Plant response rating, Morningglory",morningglory; [2],0
same,"Plant response rating, Morningglory",morningglory; [3],85
same,Morningglory plant response rating,morningglory; [4],0
same,"Plant response rating, Morningglory",morningglory; [5],0
same,"Plant response rating, Morningglory",morningglory; [6],0
same,"Plant response rating, Morningglory",morningglory; [7],0
same,"Plant response rating, Nightshade","eastern black nightshade; 62 g ai/ha, scale 0 to 100",80
same,"Plant response rating, Nightshade","eastern black nightshade; 125 g ai/ha, scale 0 (no effect) to 100 (complete control), visual, 12 to 14 days",90
same,"Plant response rating, Nightshade","eastern black nightshade; 250 g ai/ha, scale 0-100",95
same,"Plant response rating, Nightshade",eastern black nightshade; [9],95
same,"Plant response rating, Nutsedge, Yellow",yellow nutsedge; [1],0
same,"Plant response rating, Nutsedge, Yellow",yellow nutsedge; [8],0
same,"Plant response rating, Nutsedge, Yellow",yellow nutsedge; [2],0
same,"Plant response rating, Nutsedge, Yellow",yellow nutsedge; [3],0
same,"Nutsedge, Yellow plant response rating",yellow nutsedge; [4],0
same,"Plant response rating, Nutsedge, Yellow",yellow nutsedge; [5],0
same,"Plant response rating, Nutsedge, Yellow",yellow nutsedge; [6],0
same,"Plant response rating, Nutsedge, Yellow",yellow nutsedge; [7],0
same,"Plant response rating, Ragweed",common ragweed; [1],0
same,"Plant response rating, Ragweed",common ragweed; [2],70
same,"Plant response rating, Ragweed",common ragweed; [3],70
same,Ragweed plant response rating,common ragweed; [4],0
same,"Plant response rating, Ragweed",common ragweed; [5],0
same,"Plant response rating, Ragweed",common ragweed; [6],0
same,"Plant response rating, Ragweed",common ragweed; [7],0
same,"Plant response rating, Soybean",soybean; [1],0
same,"Plant response rating, Soybean",soybean; [2],10
same,"Plant response rating, Soybean",soybean; [3],40
same,Soybean plant response rating,soybean; [4],90
same,"Plant response rating, Soybean",soybean; [5],80
same,"Plant response rating, Soybean",soybean; [6],70
same,"Plant response rating, Soybean",soybean; [7],65
CCNC(=S)c1cccc(NC(=O)c2nn(C(C)(C)C)nc2C)c1 [Compound 420],"Plant response rating, Surinam Grass",Surinam grass; [1],10
same,"Plant response rating (0 = no effect, 100 = complete control), Surinam Grass","Surinam grass; 125 g ai/ha, preemergence",20
same,"Plant response rating, Surinam Grass",Surinam grass; [3],95
same,"Plant response rating, Corn",corn; [1],0
same,"Plant response rating (0 = no effect, 100 = complete control), Corn","corn; 125 g ai/ha, preemergence",0
same,"Plant response rating, Corn",corn; [2],10
same,"Plant response rating, Corn",corn; [3],40
same,"Plant response rating, Foxtail, Giant",giant foxtail; [1],20
same,"Plant response rating (0 = no effect, 100 = complete control), Foxtail, Giant","giant foxtail; 125 g ai/ha, preemergence",90
same,"Plant response rating, Foxtail, Giant",giant foxtail; [2],100
same,"Plant response rating, Foxtail, Giant",giant foxtail; [3],100
same,"Plant response rating, Johnsongrass",johnsongrass; [1],100
same,"Plant response rating (0 = no effect, 100 = complete control), Johnsongrass","johnsongrass; 125 g ai/ha, preemergence",100
same,"Plant response rating, Johnsongrass",johnsongrass; [2],100
same,"Plant response rating, Johnsongrass",johnsongrass; [3],100
same,"Plant response rating, Lambsquarters",lambsquarters; [1],95
same,"Plant response rating (0 = no effect, 100 = complete control), Lambsquarters","lambsquarters; 125 g ai/ha, preemergence",100
same,"Plant response rating, Lambsquarters",lambsquarters; [2],100
same,"Plant response rating, Lambsquarters",lambsquarters; [3],100
same,"Plant response rating, Morningglory",morningglory; [1],10
same,"Plant response rating (0 = no effect, 100 = complete control), Morningglory","morningglory; 125 g ai/ha, preemergence",55
same,"Plant response rating, Morningglory",morningglory; [3],100
same,"Plant response rating, Nightshade","eastern black nightshade; 62 g ai/ha, scale 0 to 100",80
same,"Plant response rating (0 = no effect, 100 = complete control), Nightshade",eastern black nightshade; 125 g ai/ha,90
same,"Plant response rating, Nightshade",eastern black nightshade; [9],100
same,"Plant response rating, Nutsedge, Yellow",yellow nutsedge; [1],0
same,"Plant response rating (0 = no effect, 100 = complete control), Nutsedge, Yellow","yellow nutsedge; 125 g ai/ha, preemergence",0
same,"Plant response rating, Nutsedge, Yellow",yellow nutsedge; [3],25
same,"Plant response rating, Ragweed",common ragweed; [1],0
same,"Plant response rating (0 = no effect, 100 = complete control), Ragweed","common ragweed; 125 g ai/ha, preemergence",55
same,"Plant response rating, Ragweed",common ragweed; [3],85
same,"Plant response rating, Soybean",soybean; [1],0
same,"Plant response rating (0 = no effect, 100 = complete control), Soybean","soybean; 125 g ai/ha, preemergence",10
same,"Plant response rating, Soybean",soybean; [3],85
